Test results taken from patent publication US6737383B1, “Herbicidal oxadiazolidines” (priority 1999, dated 2004).

What was measured:
bedstraw = assay: Test B pre/postemergence bedstraw; format: in vivo, Galium aparine
Outline: (§1)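 Herbicidal effect was estimated by eye on a ten-point control scale after plants spent twelve to sixteen days in a greenhouse following soil or foliar treatment. Foliar sprays targeted plants at one to four leaves; all doses were formulated in a non-phytotoxic solvent with surfactant.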

blackgrass = assay: Test B pre/postemergence blackgrass; format: in vivo, Alopecurus myosuroides
Outline: as §1

surinam grass = assay: Test B pre/postemergence surinam grass; format: in vivo, Brachiaria decumbens
Outline: as §1

cocklebur = assay: Test B pre/postemergence cocklebur; format: in vivo, Xanthium strumarium
Outline: as §1

corn = assay: Test B pre/postemergence corn; format: in vivo, Zea mays
Outline: as §1

crabgrass = assay: Test B pre/postemergence crabgrass; format: in vivo, Digitaria sanguinalis
Outline: as §1

giant foxtail = assay: Test B pre/postemergence giant foxtail; format: in vivo, Setaria faberii
Outline: as §1

morningglory = assay: Test B pre/postemergence morningglory; format: in vivo, Ipomoea hederacea
Outline: as §1

pigweed = assay: Test B pre/postemergence pigweed; format: in vivo, Amaranthus retroflexus
Outline: as §1

rape = assay: Test B pre/postemergence rape; format: in vivo, Brassica napus
Outline: as §1

soybean = assay: Test B pre/postemergence soybean; format: in vivo, Glycine max
Outline: as §1

sugar beet = assay: Test B pre/postemergence sugar beet; format: in vivo, Beta vulgaris
Outline: as §1

velvetleaf = assay: Test B pre/postemergence velvetleaf; format: in vivo, Abutilon theophrasti
Outline: as §1

wheat = assay: Test B pre/postemergence wheat; format: in vivo, Triticum aestivum
Outline: as §1

wild oat = assay: Test B pre/postemergence wild oat; format: in vivo, Avena fatua
Outline: as §1

purple nutsedge = assay: Test B pre/postemergence purple nutsedge; format: in vivo, Cyperus rotundus
Outline: as §1

rice = assay: Test B flood test rice; format: in vivo, Oryza sativa
Outline: (§2)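 Flood test on plants grown to the 2-leaf stage; treated plants kept in greenhouse twelve to sixteen days, then visually rated against controls on a 0 (no effect) to 10 (complete control) scale.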

smallflower flatsedge = assay: Test B flood test smallflower flatsedge; format: in vivo, Cyperus difformis
Outline: as §2

duck salad = assay: Test B flood test duck salad; format: in vivo, Heteranthera limosa
Outline: as §2

bamyardgrass = assay: Test B flood test barnyardgrass; format: in vivo, Echinochloa crus-galli
Outline: as §2

[1] = Postemergence, Rate 250 g/ha, scale of 0 to 10, 0 is no effect, 10 is complete control
[2] = Preemergence, Rate 62 g/ha, scale of 0 to 10 where 0 is no effect and 10 is complete control
[3] = Preemergence, Rate 125 g/ha, scale of 0 to 10 where 0 is no effect and 10 is complete control
[4] = Preemergence, Rate 500 g/ha, scale of 0 to 10 where 0 is no effect and 10 is complete control
[5] = Postemergence, Rate 62 g/ha, scale 0 to 10, 0 is no effect, 10 is complete control
[6] = Postemergence, Rate 125 g/ha, scale of 0 to 10 where 0 is no effect and 10 is complete control
[7] = Preemergence, Rate 250 g/ha, scale 0 to 10 (0 no effect, 10 complete control)
[8] = Rate 500 g/ha, Postemergence, scale 0 to 10, 0 is no effect, 10 is complete control
[9] = Rate 62 g/ha, flood test species, Pre-emergence, visual evaluation after twelve to sixteen days
[10] = Rate 125 g/ha, under heading Pre-emergence, flood test species, visual evaluation after twelve to sixteen days
[11] = Rate 250 g/ha, Pre-emergence (flood test species), scale 0 to 10, 0 is no effect, 10 is complete control
[12] = Rate 500 g/ha, Pre-emergence section of Table B, 0 to 10 scale (0 no effect, 10 complete control)

With CC(C)N(C(=O)n1oc(=O)n(CCCC#N)c1=O)c1ccccc1 [Compound 674] the “Bedstraw plant response rating” value (bedstraw; [1]) was 0, the “Bedstraw plant response rating” value (bedstraw; [2]) was 0 and the “Plant response rating, Bedstraw” value (bedstraw; [3]) was 0. For the same compound, the “Plant response rating, Bedstraw” value (bedstraw; [4]) was 0, the “Plant response rating, Blackgrass” value (blackgrass; [5]) was 4 and the “Blackgrass plant response rating” value (blackgrass; [6]) was 7. The “Blackgrass plant response rating” value (blackgrass; [1]) was 8, the “Blackgrass plant response rating” value (blackgrass; [2]) was 6 and the “Plant response rating, Blackgrass” value (blackgrass; [3]) was 8. For the same compound, the “Plant response rating, Blackgrass” value (blackgrass; [7]) was 9, the “Plant response rating, Blackgrass” value (blackgrass; [4]) was 9 and the “Blackgrass plant response rating” value (blackgrass; [8]) was 9. The “Plant response rating, B. signalgrass” value (surinam grass; [5]) was 3, the “B. signalgrass plant response rating” value (surinam grass; [6]) was 5 and the “B. signalgrass plant response rating” value (surinam grass; [1]) was 8. For the same compound, the “B. signalgrass plant response rating” value (surinam grass; [2]) was 6, the “Plant response rating, B. signalgrass” value (surinam grass; [3]) was 7 and the “Plant response rating, B. signalgrass” value (surinam grass; [7]) was 8. For the same compound, the “Plant response rating, B. signalgrass” value (surinam grass; [4]) was 8, the “B. signalgrass plant response rating” value (surinam grass; [8]) was 8 and the “Plant response rating, Cocklebur” value (cocklebur; [5]) was 0. For the same compound, the “Cocklebur plant response rating” value (cocklebur; [6]) was 0, the “Cocklebur plant response rating” value (cocklebur; [1]) was 2 and the “Cocklebur plant response rating” value (cocklebur; [2]) was 0. The “Plant response rating, Cocklebur” value (cocklebur; [3]) was 0, the “Plant response rating, Cocklebur” value (cocklebur; [7]) was 0 and the “Plant response rating, Cocklebur” value (cocklebur; [4]) was 0. For the same compound, the “Cocklebur plant response rating” value (cocklebur; [8]) was 4, the “Plant response rating, Corn” value (corn; [5]) was 0 and the “Corn plant response rating” value (corn; [6]) was 3. The “Corn plant response rating” value (corn; [1]) was 6, the “Corn plant response rating” value (corn; [2]) was 2 and the “Plant response rating, Corn” value (corn; [3]) was 3. The “Plant response rating, Corn” value (corn; [7]) was 5, the “Plant response rating, Corn” value (corn; [4]) was 8 and the “Corn plant response rating” value (corn; [8]) was 7. The “Plant response rating, Crabgrass” value (crabgrass; [5]) was 6, the “Crabgrass plant response rating” value (crabgrass; [6]) was 8 and the “Crabgrass plant response rating” value (crabgrass; [1]) was 9. For the same compound, the “Crabgrass plant response rating” value (crabgrass; [2]) was 8, the “Plant response rating, Crabgrass” value (crabgrass; [3]) was 9 and the “Plant response rating, Crabgrass” value (crabgrass; [7]) was 9. For the same compound, the “Plant response rating, Crabgrass” value (crabgrass; [4]) was 9, the “Crabgrass plant response rating” value (crabgrass; [8]) was 9 and the “Plant response rating, Giant foxtail” value (giant foxtail; [5]) was 7. The “Giant foxtail plant response rating” value (giant foxtail; [6]) was 9, the “Giant foxtail plant response rating” value (giant foxtail; [1]) was 9 and the “Giant foxtail plant response rating” value (giant foxtail; [2]) was 6. For the same compound, the “Plant response rating, Giant foxtail” value (giant foxtail; [3]) was 9, the “Plant response rating, Giant foxtail” value (giant foxtail; [4]) was 10 and the “Giant foxtail plant response rating” value (giant foxtail; [8]) was 9. For the same compound, the “Plant response rating, Morningglory” value (morningglory; [5]) was 2, the “Morningglory plant response rating” value (morningglory; [6]) was 2 and the “Morningglory plant response rating” value (morningglory; [1]) was 10. The “Morningglory plant response rating” value (morningglory; [2]) was 0, the “Plant response rating, Morningglory” value (morningglory; [3]) was 0 and the “Plant response rating, Morningglory” value (morningglory; [4]) was 7. For the same compound, the “Plant response rating, Redroot pigweed” value (pigweed; [5]) was 0, the “Redroot pigweed plant response rating” value (pigweed; [6]) was 3 and the “Redroot pigweed plant response rating” value (pigweed; [2]) was 7. For the same compound, the “Plant response rating, Redroot pigweed” value (pigweed; [3]) was 7, the “Plant response rating, Redroot pigweed” value (pigweed; [4]) was 10 and the “Redroot pigweed plant response rating” value (pigweed; [8]) was 7. For the same compound, the “Plant response rating, Rape” value (rape; [5]) was 0, the “Rape plant response rating” value (rape; [6]) was 0 and the “Rape plant response rating” value (rape; [2]) was 0. The “Plant response rating, Rape” value (rape; [3]) was 3, the “Plant response rating, Rape” value (rape; [4]) was 8 and the “Rape plant response rating” value (rape; [8]) was 5. For the same compound, the “Plant response rating, Soybean” value (soybean; [5]) was 2, the “Soybean plant response rating” value (soybean; [6]) was 3 and the “Soybean plant response rating” value (soybean; [2]) was 3. The “Plant response rating, Soybean” value (soybean; [3]) was 3, the “Plant response rating, Soybean” value (soybean; [4]) was 7 and the “Soybean plant response rating” value (soybean; [8]) was 7. For the same compound, the “Plant response rating, Sugarbeets” value (sugar beet; [5]) was 0, the “Sugarbeets plant response rating” value (sugar beet; [6]) was 0 and the “Sugarbeets plant response rating” value (sugar beet; [2]) was 2. For the same compound, the “Plant response rating, Sugarbeets” value (sugar beet; [3]) was 5, the “Plant response rating, Sugarbeets” value (sugar beet; [4]) was 9 and the “Sugarbeets plant response rating” value (sugar beet; [8]) was 5. The “Plant response rating, Velvetleaf” value (velvetleaf; [5]) was 4, the “Velvetleaf plant response rating” value (velvetleaf; [6]) was 6 and the “Velvetleaf plant response rating” value (velvetleaf; [2]) was 6. The “Plant response rating, Velvetleaf” value (velvetleaf; [3]) was 7, the “Plant response rating, Velvetleaf” value (velvetleaf; [4]) was 10 and the “Velvetleaf plant response rating” value (velvetleaf; [8]) was 8. For the same compound, the “Plant response rating, Wheat” value (wheat; [5]) was 0, the “Wheat plant response rating” value (wheat; [6]) was 0 and the “Wheat plant response rating” value (wheat; [2]) was 0. The “Plant response rating, Wheat” value (wheat; [3]) was 5, the “Plant response rating, Wheat” value (wheat; [4]) was 8 and the “Wheat plant response rating” value (wheat; [8]) was 7. For the same compound, the “Plant response rating, Wild oats” value (wild oat; [5]) was 0, the “Wild oats plant response rating” value (wild oat; [6]) was 0 and the “Wild oats plant response rating” value (wild oat; [2]) was 1. The “Plant response rating, Wild oats” value (wild oat; [3]) was 3, the “Plant response rating, Wild oats” value (wild oat; [4]) was 10 and the “Wild oats plant response rating” value (wild oat; [8]) was 3. For the same compound, the “Plant response rating, Nutsedge” value (purple nutsedge; [5]) was 0, the “Nutsedge plant response rating” value (purple nutsedge; [6]) was 3 and the “Nutsedge plant response rating” value (purple nutsedge; [2]) was 0. For the same compound, the “Plant response rating, Nutsedge” value (purple nutsedge; [3]) was 0, the “Plant response rating, Nutsedge” value (purple nutsedge; [4]) was 6 and the “Plant response rating, Rice (0 to 10 scale, 0 is no effect, 10 is complete control)” value (rice; [9]) was 0. For the same compound, the “Rice plant response rating (0 to 10 scale, 0 is no effect, 10 is complete control)” value (rice; [10]) was 0, the “Rice plant response rating” value (rice; [11]) was 0 and the “Rice plant response rating” value (rice; [12]) was 0. The “Plant response rating, S. Flatsedge (0 to 10 scale, 0 is no effect, 10 is complete control)” value (smallflower flatsedge; [9]) was 0, the “S. Flatsedge plant response rating (0 to 10 scale, 0 is no effect, 10 is complete control)” value (smallflower flatsedge; [10]) was 0 and the “S. Flatsedge plant response rating” value (smallflower flatsedge; [11]) was 0. The “S. Flatsedge plant response rating” value (smallflower flatsedge; [12]) was 0, the “Plant response rating, Ducksalad (0 to 10 scale, 0 is no effect, 10 is complete control)” value (duck salad; [9]) was 0 and the “Ducksalad plant response rating (0 to 10 scale, 0 is no effect, 10 is complete control)” value (duck salad; [10]) was 0. For the same compound, the “Ducksalad plant response rating” value (duck salad; [11]) was 0, the “Ducksalad plant response rating” value (duck salad; [12]) was 0 and the “Plant response rating, Barnyardgrass (0 to 10 scale, 0 is no effect, 10 is complete control)” value (bamyardgrass; [9]) was 0. The “Barnyardgrass plant response rating (0 to 10 scale, 0 is no effect, 10 is complete control)” value (bamyardgrass; [10]) was 0, the “Barnyardgrass plant response rating” value (bamyardgrass; [11]) was 0 and the “Barnyardgrass plant response rating” value (bamyardgrass; [12]) was 0.
